Counter-ions that a name gives are not always drawn.
Legend:
hNPCs = experiment: hNPC viability, proliferation, apoptosis and identity; format: cell-based, human; details: for ZIKV induced growth arrest or apoptosis of hNPCs: 72 h after ZIKV (MR766) infection, vs DMSO
Description: (A) Scheme of high content chemical screen. (B) Chemical structure of hit compounds. (C) Inhibitory curve and IC50 of HH or AQ on hNPCs (n=6). (D-H) Immunocytochemistry analysis (D), the quantification of the infection rate (E), the quantification of proliferation rate (F), the quantification of cell apoptosis rate (G) and the normalized cell viability (H) of hNPCs at 72 h after ZIKV (MR 766 strain) infection with or without drug treatment. Scale bars, 100 μm. The ZIKV infection rate is defined as the percentage of ZIKV E^+ cells. The proliferation rate is defined as the percentages of Ki67^+ cells. The cell apoptosis rate was defined as the percentage of cleaved-Caspase 3/CAS3^+ cells. The normalized cell viability was calculated by dividing the total cell number of each condition by the total cell number under mock infection conditions. (n=6). (I) qRT-PCR analysis to monitor the total ZIKV vRNA in the supernatant of hNPC cultures at 72 h after ZIKV infection with or without drug treatment. (J) Vero cell reinfection assay to monitor the ZIKV infectious particles in the supernatant of hNPC cultures with or without drug treatment. To perform the Vero cell reinfection assay, hNPCs at 72 h after ZIKV infection were washed three times and changed to drug free medium for an additional 24 h. Vero cells were infected with the supernatant collected from hNPCs for 2 h and changed to virus free medium for an additional 24 h. Vero cells were stained with antibody against ZIKV E and DAPI. Scale bars, 200 μm. (n=3). (K) Quantification of ZIKV infectious particles produced by ZIKV-infected hNPCs with or without compound treatment by the Vero cell reinfection assay. (L) Heatmap analysis of mock-infected hNPCs treated with DMSO (mock); mock infected hNPCs treated with 25 μM HH (HH), mock-infected hNPCs treated with 15 μM AQ (AQ), ZIKV (MR766 strain, MOI=0.125) infected hNPCs treated with DMSO (ZIKV+DMSO); ZIKV-infected hNPCs treated with 25 μM HH (ZIKV+HH), and ZIKV-infected hNPCs treated with 15 μM AQ (ZIKV+AQ). […] (M and N) Immunocytochemistry analysis (M) and quantification of the infection rate (N) of hNPCs at 72 h after ZIKV (PRVABC59 strain) infection with or without drug treatment (n=6). Scale bars, 100 μm. p values were calculated by one-way repeated measures ANOVA with a Bonferroni test for multiple comparisons. *p<0.05, **p<0.01 and ***p<0.001.
(A) Scheme to evaluate the elimination of ZIKV. At day 0, hNPCs were infected with ZIKV for 2 h. After removal of ZIKV infection medium, hNPCs were treated with drug candidates. At day 3, the culture medium was changed to fresh medium without compounds. The cells were maintained in drug-free culture until day 6 and used for immunohistochemistry and qRT-PCR. (B and C) Inhibitory curve and IC50 of HH calculated based on the infection rate (B) and normalized cell viability (C) (n=6). (D and E) Immunocytochemistry analysis (D) and the quantification of infection rate, cell apoptosis rate, and total cell number (E) of hNPCs on day 3 and day 6. Cells was fixed and stained with cleaved Caspase-3 (CAS3), ZIKV E and DAPI. Scale bars, 100 μm. (F) qRT-PCR analysis to monitor the total ZIKV vRNA in the supernatant of hNPC cultures on day 6. Scale bars, 200 μm. (n=3). (G) Vero cell reinfection assay to monitor the infective ZIKV vRNA in the supernatant of hNPC cultures at day 6 after ZIKV infection. Scale bars, 200 μm. (n=3). (H) Quantification of ZIKV infectious particles produced by ZIKV-infected hNPCs at day 6 by the Vero cell reinfection assay. (I) hNPCs with or without ZIKV infection treated with HH maintain hNPC marker expression and differentiation capacity. hNPCs with or without ZIKV MR766 infection were treated with 25 μM HH or DMSO for 3 days and then stained for SOX2, NESTIN and with DAPI. hNPCs with or without ZIKV infection and treated with HH or DMSO for 3 days were differentiated to cortical neurons. The cortical neurons were then fixed and stained for MAP2, TUJ1 and with DAPI. Scale bars, 100 μm. (n=3). […]

ZIKV (MR766 strain) [1] = experiment: qRT-PCR of total ZIKV vRNA in supernatant of hNPC cultures; format: cell-based, Zika virus; details: 72 h after infection
Description: (§1) (A) Scheme of high content chemical screen. (B) Chemical structure of hit compounds. (C) Inhibitory curve and IC50 of HH or AQ on hNPCs (n=6). (D-H) Immunocytochemistry analysis (D), the quantification of the infection rate (E), the quantification of proliferation rate (F), the quantification of cell apoptosis rate (G) and the normalized cell viability (H) of hNPCs at 72 h after ZIKV (MR 766 strain) infection with or without drug treatment. Scale bars, 100 μm. The ZIKV infection rate is defined as the percentage of ZIKV E^+ cells. The proliferation rate is defined as the percentages of Ki67^+ cells. The cell apoptosis rate was defined as the percentage of cleaved-Caspase 3/CAS3^+ cells. The normalized cell viability was calculated by dividing the total cell number of each condition by the total cell number under mock infection conditions. (n=6). […] (K) Quantification of ZIKV infectious particles produced by ZIKV-infected hNPCs with or without compound treatment by the Vero cell reinfection assay. […] (M and N) Immunocytochemistry analysis (M) and quantification of the infection rate (N) of hNPCs at 72 h after ZIKV (PRVABC59 strain) infection with or without drug treatment (n=6). Scale bars, 100 μm. p values were calculated by one-way repeated measures ANOVA with a Bonferroni test for multiple comparisons. *p<0.05, **p<0.01 and ***p<0.001. […]

ZIKV (MR766 strain) [2] = experiment: Vero cell re-infection assay (infectious ZIKV in hNPC supernatant); format: cell-based, Zika virus; details: supernatant of hNPC cultures, 72 h after infection
Description: as §1

ZIKV (FSS13025 strain) = experiment: qRT-PCR of vRNA in human forebrain organoids treated 42 h or 48 h post-infection (FSS13025); format: cell-based, Zika virus; details: HH added at 42 h or 48 h post-infection, additional 3 days
Description: Immunocytochemical analysis of D20+4 ZIKV-infected organoids treated with 15 μM AQ or DMSO or with mock infection (n=3). D20+4 organoids were stained for SOX2, ZIKV E and with DAPI to monitor the ZIKV infection rate. D20+4 organoids were also stained for Ki67, CAS3 and with DAPI to monitor the cell proliferation and apoptosis rate. […] Scale bars, 100 μm. (B) The expression dynamics of ZIKV vRNA (FSS13025 strain) in human forebrain organoids. qRT-PCR analysis to quantify the total and replicating (−) strand vRNA levels in the human forebrain organoids at different time points post-infection. […] (C) qRT-PCR analysis of human forebrain organoids that were treated with 25 μM HH or DMSO at 42 h or 48 h post-ZIKV (FSS13025 strain) infection and maintained for additional 3 days. p values were calculated by unpaired two-tailed Student's t-test. *p<0.05, **p<0.01 and ***p<0.001, if not mentioned specifically.
To further validate the effect of HH on ZIKV-infected brain organoids, we first monitored ZIKV vRNA expression dynamics in organoids using qRT-PCR analysis.
RNA Extraction and qRT-PCR. Total RNA of cultured cells and organs was extracted with RNeasy plus mini kit (Qiagen). vRNA from cell culture supernatant or mouse serum was extracted with QIAampe viral RNA mini kit (Qiagen). […] ZIKV vRNA levels were calculated using a standard curve generated using serial 10-fold dilutions of ZIKV vRNA.

SMILES: CCN(CC)Cc1cc(Nc2ccnc3cc(Cl)ccc23)ccc1O [AQ, amodiaquine dihydrochloride dihydrate]
- ZIKV induced growth arrest or apoptosis of hNPCs (hNPCs): blocked ZIKV induced growth arrest or apoptosis
- production of ZIKV viral RNA (vRNA), qRT-PCR (ZIKV (MR766 strain) [1]): significantly suppressed
- production of infectious ZIKV, Vero cell re-infection assay (ZIKV (MR766 strain) [2]): significantly suppressed

SMILES: CN1CCC2=C[C@H](O)[C@H]3OC(=O)c4cc5c(cc4[C@H]3[C@@H]21)OCO5 [HH, hippeastrine hydrobromide]
- ZIKV induced growth arrest or apoptosis of hNPCs (hNPCs): blocked ZIKV induced growth arrest or apoptosis
- cell death rate and total cell number (hNPCs; ZIKV infected hNPCs, day 6): comparable to control mock infection conditions
- ZIKV-induced loss of cell viability (hNPCs; dose-dependent, compound applied 2 h post infection): successfully rescued
- expression of neural progenitor markers SOX2 and NESTIN and differentiation capacity (hNPCs; hNPCs with or without ZIKV infection treated for 3 days): maintained the expression of neural progenitor markers
- cytotoxicity to hNPCs (hNPCs; highest dose of 100 μM): no obvious cytotoxicity
- total and replicating (-) ZIKV vRNA levels in forebrain organoids (ZIKV (FSS13025 strain)): significantly decreased
- production of ZIKV viral RNA (vRNA), qRT-PCR (ZIKV (MR766 strain) [1]): significantly suppressed
- production of infectious ZIKV, Vero cell re-infection assay (ZIKV (MR766 strain) [2]): significantly suppressed

Reference: patent US11466020B2, “Compounds and compositions for inhibition and elimination of Zika infection and uses for same” (Cornell University, priority 2017, dated 2022)
